Measurements as given in article PMC9655874, “Analysis of Volatile Secondary Metabolites in Ocimum basilicum Cell Suspensions: Inhibition, In Silico Molecular Docking, and an ADMET Analysis against Proteolytic Enzymes of Rhynchophorus ferrugineus” (Plants, 2022).
≈ marks a conversion by molar mass, not a printed value. Where “and” joins values, the source holds several entries; their conditions need not be identical. Equal entries are not always repeated.

Columns and labels:
[1] = system: gut proteases of R. ferrugineus fourth larval instar; assay: Specific protease inhibitors against gut proteases of fourth larval instar (in vitro); type: biochemical, Rhynchophorus ferrugineus; conditions: Figure S2, in vitro
Experimental: As a starting point (blank), an assessment combination not containing enzymes was utilized. TLCK (trypsin proteinase inhibitor), PMSF (general serine proteinase inhibitor), EDTA (EDTA-metalloproteinase inhibitor), iodoacetic acid (an iodoacetic acid-cysteine proteinase inhibitor), TPCK (chymotrypsin-proteinase inhibitor), and Leupeptin (as general proteinase inhibitor) were added to the reactions. Homogenates of larval fourth-gut tissue were prepared using the same methodology described for the enzyme activity test. The inhibitory test was conducted via a microplate assay, as reported previously. A series of inhibitor levels were prepared to determine the greatest inhibition activity. Concentrations of 0.01, 0.05, 0.1, and 1.0 mM leupeptin; 0.005, 0.01, 0.05, 0.1, and 1 mM TLCK and TPCK; 0.1, 1.0, 10, 50, and 100 mM PMSF; and 0.01, 0.05, 0.1, 1, and 2 mM iodoacetic acid, 100 mM; 1,10 phenanthroline, EDTA, and EGTA concentrations of 0.1, 1, 10, 50, and 100 mM.

[2] = molecular target: metalloprotease of R. ferrugineus midgut; assay: Metalloproteinase specific activity, CEGR substrate (in vitro); conditions: 4th instar midgut homogenate
Experimental: (§4) The ten midgut larvae from the fourth stage were neatly eliminated, dissected, and repeatedly washed with 0.9% NaCl solution. A 500 µL protease test solution, including 50 mM HEPS, 0.1% Triton X-100, and 5 mM DTT (pH 8.0), was utilized to homogenize the midgut instar. The homogenates were then centrifuged employing a Sigma 3k30 (cooling centrifuge) at 5000 rpm for 30 min to evaluate the supernatant’s enzyme activity and protein content. Before introducing CEGR (125 µL, 2% (w/v)), each experiment’s supernatant (10 µL) was incubated in an assay buffer (60 µL) at 37 °C for 20 min (pH 8). During a 10 min incubation period without a substrate, 10 µL enzyme samples were tested (20 min. for EDTA, EGTA, 1.10, Phenanthroline). After 180 min at 37 °C, 300 µL of cold TCA, 10% (v/v), was used to terminate the reaction. For the next 20 min, the mixture was spun (5000 rpm, Sigma 3K30). The absorbance was measured at 450 nm after mixing the supernatant with hydroxide solution (10 µL, 10 N) using an ELISA reader. An enzyme-free assay combination was utilized as a blank, and particular activity was evaluated utilizing the OD493 mg^−1 protein min^−1 and an enzyme-free blank specimen.
(§5) An experiment that was set up free of potential inhibitors served as a control. An ELISA plate fast reader measured the enzymes’ absorption at various wavelengths. For each inhibitor, the control enzyme’s percentage activity was assessed for each enzyme. Four instars midgut larvae were treated with previous concentrations of extracts or compounds, assessed as previously mentioned, to measure the protease activity in vivo. Larvae were subjected to extract- and compound-treated leaf discs for 24 h.

[3] = system: total proteases of R. ferrugineus midgut; assay: Total protease activity in midgut of treated larvae (in vivo); conditions: larvae treated 24 h, midgut preparation
Experimental: (§6) The homogenate of R. ferrugineus 4th midgut instar larvae (lab strain) was assayed for total proteolytic enzyme activity using azocasein, as Darrag et al. [26], with modifications. Ten 4th midgut larval homogenates were carefully removed, incised, and then rinsed in a solution containing 0.9% NaCl before even being homogenized in a buffer (500 µL) containing 5 mM dithiothreitol (DTT), 0.1% (v/v) Triton X-100, and 50 mM N-2-hydroxyethyl piperazine-N′-2-ethane sulphonic acid (HEPS), and 8.0 pH. It was spun in a centrifuge (Sigma 3k30), and the remaining homogenates were from a preliminary phase for 30 min at 5000 rpm. Using the supernatants, the protein concentration and proteolytic enzyme activity were determined. […] Before each reaction experiment, 40-day-old methanolic extract of cell suspension, pure chemicals, and 10 μL of enzyme specimens were incubated for 10 min. The addition of the substrate initiated the reaction, which was allowed for 20 min in the case of leupeptin before being terminated 180 min later by adding 300 µL of cold tri-chloroacetic acid (TCA) (10%, v/v). Twenty minutes were spent centrifuging the mixture at 5000 rpm (Sigma 3k30). Overall, 10 µL of NaOH (10 N) was added to the supernatant, and the absorbance was measured using an ELISA plate reader at 450 nm to quantify the enzymes’ specific activity as OD450/mg protein/h.
as §5

[4] = system: R. ferrugineus 4th larvae; assay: Topical application (contact insecticide) to fourth instar larvae; type: in vivo, Rhynchophorus ferrugineus; conditions: for LD50 (µg/Larvae) 95% CF: 4th larvae, topical, 95% confidence limits in brackets; for LD50: larvae
Experimental: (§1) Cells were suspended in the methanolic extract at serially increasing concentrations for 40 days. To dilute the compounds, TritonX-100 (0.1%) was added to acetone after the chemicals were dissolved. Adults or larvae of R. ferrugineus were purchased. They were then cultured using long lengths of sugar cane stem. The extracts’ anti-larvae action was assessed by applying topically to larvae and keeping them at 4–5 °C for 5 min. Utilizing a manually controlled micro-applicator, each larva had extract injected into its dorsum in three separate 10 µL doses using a 50-ll micro-syringe from Hertfordshire, UK’s Burkard Manufacturing Co., Ltd. (MS-N50; Shizuoka, Japan’s Ito Corp.). Five larvae in a box with three replications were fed on portions of long sugarcane stem measuring 10 cm. […] The sugarcane stem’s ten-centimeter-long portions cut into equal longitudinal halves were used to measure the antifeedant activity against adults. Long sections of sugarcane stem with a surface area of approximately 32.2 cm^2 were dried in air at room temperature, assuming a dipping time of 10 s and an initial serial concentration of (10 mL). Each treated object remained in a plastic container. Each box included an additional pair (male and female). Each therapy was administered ten times. In total, 24-, 48-, 72-, and 96-h feeding observations were assessed.
(§2) Statistics and probit analysis were performed using SPSS 25.0, as mentioned by Finney. To sum up, all numerical predictions of toxicity variables and findings were presented as the mean ± SE. We regressed mortality and translated the resulting dosage to an LC50 value (µg/mL). […] Enzyme activity data were analyzed using an ANOVA. Means were separated using the SNK (Student–Newman–Keuls) test, and deviations at the p ˂ 0.05 level were considered noteworthy.

R. ferrugineus adults = assay: whole plant or invertebrate; type: in vivo; conditions: Rhynchophorus ferrugineus, read-out: LC50 (µg/mL) 95% CF
Experimental: as §1, §2

[5] = molecular target: total proteases of R. ferrugineus midgut; assay: Total proteolytic enzyme activity of 4th instar midgut homogenate, azocasein (in vitro)
Experimental: as §6, §5

[6] = molecular target: trypsin proteinase of R. ferrugineus midgut; assay: Serine proteinase specific activity, trypsin (in vitro); conditions: 4th instar midgut homogenate
Experimental: (§7) We used a serine protease assay buffer and a modified version of the fast microplate method to analyze the serine proteinase’s specific activity in mixtures (150 µL) [26]. […] The sample (10 µL) was diluted using an assay buffer to 50 µL to determine the presence of trypsin proteinase, chymotrypsin proteinase, and elastase. Assay buffer was used to dilute stock substrates of BAρNA (100 mg/mL DMSO), both SAAPFρNA and SAAPLρNA (100 mg/mL DMF), to 1.0 mg/mL. To halt the reaction after 15 min of incubation at 37 °C, 50 µL of acetic acid (30%, v/v) was added. The intensity of the activity was measured using a 405 nm ELISA plate reader. A denaturation enzyme was used in place of an active enzyme in the experiment mixture. For three substrates (SAAPLρNA, BAρNA, and SAAPFρNA), activity levels of certain proteinases were assessed as OD mg^−1 protein min^−1.
as §5

[7] = system: metalloprotease of R. ferrugineus midgut; assay: Metalloprotease activity in midgut of treated larvae (in vivo); conditions: larvae treated 24 h, midgut preparation
Experimental: as §4, §5

[8] = system: trypsin proteinase of R. ferrugineus midgut; assay: Trypsin activity in midgut of treated larvae (in vivo); conditions: larvae treated 24 h, midgut preparation
Experimental: as §7, §5

[9] = molecular target: cysteine protease of R. ferrugineus midgut; assay: Cysteine proteinase activity (in vitro); type: biochemical, Rhynchophorus ferrugineus; conditions: 4th instar midgut homogenate
Experimental: (§3) Utilizing the substrate N-benzoyl-Phe-Val-Arg-p-nitroanilide hydrochloride and certain modifications, the cysteine proteinases of R. ferrugineus homogenate from the fourth midgut instar was tested for activity. Ten larvae of the fourth midgut were carefully taken out, dissected, and periodically washed with 0.9% (w/v) NaCl solution, assay buffer containing 50 mM HEPS, 5 mM DTT, and 0.1% Triton X-100 (v/v) (pH 8.0, 500 µL) was used to homogenize the samples. The homogenates were spun using a cooling Sigma 3k30 centrifuge for 30 min at 5000 rpm. […] Before introducing 100 µL of the substrate, 10 µL of the supernatant was incubated in assay buffer (60 µL, pH = 8) at 37 °C for 30 min. Enzyme samples in 10 µL were incubated for 10 min with iodoacetic acid before the addition of the substrate. […] The absorbance at 520 nm was measured after spinning the reaction for 6 min at 5000 rpm. The activity in the midgut was assayed at OD520.60 min^−1 mg^−1 of protein with an ELISA rapid reader.

[10] = system: cysteine protease of R. ferrugineus midgut; assay: Cysteine protease activity in midgut of treated larvae (in vivo); set-up: species or system Rhynchophorus ferrugineus; conditions: larvae treated 24 h, midgut preparation
Experimental: as §3

[11] = molecular target: elastase of R. ferrugineus midgut; assay: Serine proteinase specific activity, elastase (in vitro); type: biochemical, Rhynchophorus ferrugineus; conditions: 4th instar midgut homogenate
[12] = system: elastase of R. ferrugineus midgut; assay: Elastase activity in midgut of treated larvae (in vivo); set-up: species or system Rhynchophorus ferrugineus; conditions: larvae treated 24 h, midgut preparation

c1cnc2c(c1)ccc1cccnc12 [1,10 phenanthroline]
Effect on extracted gut proteases of the fourth larval instar [1]: significantly inhibited

C=C/C(C)=C/CC=C(C)C [(E)-β-ocimene]
IC50 metalloprotease (in vitro) [2]: 321.7 µg/mL (≈ 2360 µM)
IC50 total proteases (in vivo) [3]: 273.2 µg/mL (≈ 2010 µM)
LD50 (µg/Larvae) 95% CF [4]: 31.2 (27.4–32.8) µg/Larvae
LD50 ([4]; topical application): 31.2 µg/larva
LC50 (R. ferrugineus adults): 3010 µg/mL (≈ 22100 µM)
IC50 total proteases (in vitro) [5]: 207.4 µg/mL (≈ 1520 µM)
IC50 trypsin proteinase (in vitro) [6]: 157.2 µg/mL (≈ 1150 µM)

O=C(O)CN(CCN(CC(=O)O)CC(=O)O)CC(=O)O [EDTA]
Effect on extracted gut proteases of the fourth larval instar [1]: significantly inhibited

O=C(O)CN(CCOCCOCCN(CC(=O)O)CC(=O)O)CC(=O)O [EGTA]
Effect on extracted gut proteases of the fourth larval instar [1]: significantly inhibited

Cc1ccc(S(=O)(=O)N[C@@H](CCCCN)C(=O)CCl)cc1 [TLCK]
Effect on extracted gut proteases of the fourth larval instar [1]: significantly inhibited

Cc1ccc(S(=O)(=O)N[C@@H](Cc2ccccc2)C(=O)CCl)cc1 [TPCK]
Effect on extracted gut proteases of the fourth larval instar [1]: significantly inhibited

C=CCc1ccc(OC)cc1 [estragole]
IC50 metalloprotease (in vitro) [2]: 627.8 µg/mL (≈ 4240 µM)
IC50 total proteases (in vivo) [3]: 314.8 µg/mL (≈ 2120 µM)
IC50 metalloprotease (in vivo) [7]: 1014.1 µg/mL (≈ 6840 µM)
LC50 (R. ferrugineus adults): 3590 µg/mL (≈ 24200 µM)
IC50 total proteases (in vitro) [5]: 254.7 µg/mL (≈ 1720 µM)
IC50 trypsin proteinase (in vitro) [6]: 257.5 µg/mL (≈ 1740 µM)
IC50 trypsin proteinase (in vivo) [8]: 628.7 µg/mL (≈ 4240 µM)

C=C1/C=C/[C@H](C(C)C)CC/C(C)=C/CC1 [germacrene D]
IC50 metalloprotease (in vitro) [2]: 112.3 µg/mL (≈ 550 µM)
IC50 total proteases (in vivo) [3]: 861.2 µg/mL (≈ 4210 µM)
IC50 metalloprotease (in vivo) [7]: 574.6 µg/mL (≈ 2810 µM)
LD50 (µg/Larvae) 95% CF [4]: 21.3 (19.7–22.5) µg/Larvae
LD50 ([4]; topical application): 21.3 µg/larva
LC50 (R. ferrugineus adults): 2040 µg/mL (≈ 10000 µM)
IC50 total proteases (in vitro) [5]: 182.1 µg/mL (≈ 891 µM)
IC50 trypsin proteinase (in vitro) [6]: 144.2 µg/mL (≈ 706 µM)

O=C(O)CI [iodoacetic acid]
Effect on extracted gut proteases of the fourth larval instar [1]: significantly inhibited

CC(C)=CCC/C(C)=C\CO [nerol]
IC50 metalloprotease (in vitro) [2]: 106.7 µg/mL (≈ 692 µM)
IC50 total proteases (in vivo) [3]: 248.6 µg/mL (≈ 1610 µM)
IC50 metalloprotease (in vivo) [7]: 189.1 µg/mL (≈ 1230 µM)
LD50 (µg/Larvae) 95% CF [4]: 15.6 (14.3–16.2) µg/Larvae
LD50 [4]: 15.6 µg/larva
LD50 ([4]; topical application): 15.6 µg/larva
LC50 (R. ferrugineus adults): 1950 µg/mL (≈ 12600 µM)
IC50 total proteases (in vitro) [5]: 188.3 µg/mL (≈ 1220 µM)
IC50 trypsin proteinase (in vitro) [6]: 68.1 µg/mL (≈ 441 µM)
IC50 trypsin proteinase (in vivo) [8]: 186.3 µg/mL (≈ 1210 µM)

C=C(C)C1CCC(C)C2=C(C1)C(C)CC2 (stereo not drawn) [α-guaiene]
IC50 metalloprotease (in vitro) [2]: 124.9 µg/mL (≈ 611 µM)
IC50 total proteases (in vivo) [3]: 694.7 µg/mL (≈ 3400 µM)
IC50 cysteine protease (in vitro) [9]: 238.5 µg/mL (≈ 1170 µM)
IC50 metalloprotease (in vivo) [7]: 594.7 µg/mL (≈ 2910 µM)
LD50 (µg/Larvae) 95% CF [4]: 19.2 (17.8–20.7) µg/Larvae
LD50 ([4]; topical application): 19.2 µg/larva
LC50 (R. ferrugineus adults): 1490 µg/mL (≈ 7300 µM)
IC50 total proteases (in vitro) [5]: 107.4 µg/mL (≈ 526 µM)
IC50 cysteine protease (in vivo) [10]: 642.3 µg/mL (≈ 3140 µM)
IC50 trypsin proteinase (in vitro) [6]: 66.8 µg/mL (≈ 327 µM)
IC50 trypsin proteinase (in vivo) [8]: 454.4 µg/mL (≈ 2220 µM)

C=C1CCC2CC1C2(C)CCC=C(C)C (stereo not drawn) [β-bergamotene]
IC50 metalloprotease (in vitro) [2]: 134.8 µg/mL (≈ 660 µM)
IC50 total proteases (in vivo) [3]: 598.3 µg/mL (≈ 2930 µM)
IC50 cysteine protease (in vitro) [9]: 119.6 µg/mL (≈ 585 µM)
IC50 metalloprotease (in vivo) [7]: 613.5 µg/mL (≈ 3000 µM)
LD50 (µg/Larvae) 95% CF [4]: 17.2 (16.1–18.4) µg/Larvae
LD50 ([4]; topical application): 17.2 µg/larva
LC50 (R. ferrugineus adults): 1290 µg/mL (≈ 6330 µM)
IC50 total proteases (in vitro) [5]: 78.9 µg/mL (≈ 386 µM)
IC50 cysteine protease (in vivo) [10]: 521.4 µg/mL (≈ 2550 µM)
IC50 trypsin proteinase (in vitro) [6]: 58.5 µg/mL (≈ 286 µM)
IC50 trypsin proteinase (in vivo) [8]: 284.5 µg/mL (≈ 1390 µM)

C=C1CC/C=C(\C)CC[C@@H]2[C@@H]1CC2(C)C [β-caryophyllene]
IC50 metalloprotease (in vitro) [2]: 314.5 µg/mL (≈ 1540 µM)
IC50 total proteases (in vivo) [3]: 748.2 µg/mL (≈ 3660 µM)
IC50 cysteine protease (in vitro) [9]: 204.4 µg/mL (≈ 1000 µM)
LD50 (µg/Larvae) 95% CF [4]: 20.1 (18.7–21.4) µg/Larvae
LD50 ([4]; topical application): 20.1 µg/larva
LC50 (R. ferrugineus adults): 1520 µg/mL (≈ 7450 µM)
IC50 total proteases (in vitro) [5]: 176.3 µg/mL (≈ 863 µM)
IC50 cysteine protease (in vivo) [10]: 586.3 µg/mL (≈ 2870 µM)
IC50 trypsin proteinase (in vitro) [6]: 70.4 µg/mL (≈ 344 µM)
IC50 trypsin proteinase (in vivo) [8]: 489.3 µg/mL and 542.8 µg/mL

C=CC(=C)CCC=C(C)CCC=C(C)C [β-farnesene]
IC50 metalloprotease (in vitro) [2]: 101.5 µg/mL (≈ 497 µM)
IC50 total proteases (in vivo) [3]: 675.2 µg/mL (≈ 3300 µM)
IC50 cysteine protease (in vitro) [9]: 128.4 µg/mL (≈ 628 µM)
IC50 metalloprotease (in vivo) [7]: 545.7 µg/mL (≈ 2670 µM)
LD50 (µg/Larvae) 95% CF [4]: 18.4 (17.1–19.7) µg/Larvae
LD50 ([4]; topical application): 18.4 µg/larva
LC50 (R. ferrugineus adults): 1360 µg/mL (≈ 6640 µM)
IC50 total proteases (in vitro) [5]: 88.6 µg/mL (≈ 434 µM)
IC50 cysteine protease (in vivo) [10]: 536.8 µg/mL (≈ 2630 µM)
IC50 trypsin proteinase (in vitro) [6]: 60.2 µg/mL (≈ 295 µM)
IC50 trypsin proteinase (in vivo) [8]: 425.8 µg/mL (≈ 2080 µM)

CC1=CCC(C(C)C)=CC1 [γ-terpinene]
IC50 metalloprotease (in vitro) [2]: 526.8 µg/mL (≈ 3870 µM)
IC50 total proteases (in vivo) [3]: 337.4 µg/mL (≈ 2480 µM)
IC50 elastase (in vitro) [11]: 154.3 µg/mL (≈ 1130 µM)
IC50 elastase (in vivo) [12]: 315.8 µg/mL (≈ 2320 µM)
IC50 total proteases (in vitro) [5]: 268.1 µg/mL (≈ 1970 µM)
IC50 trypsin proteinase (in vitro) [6]: 229.7 µg/mL (≈ 1690 µM)
IC50 trypsin proteinase (in vivo) [8]: 594.1 µg/mL (≈ 4360 µM)
